Measured values: ChEMBL document CHEMBL1152301, “Substitution of aminomethyl at the meta-position enhances the inactivation of O6-alkylguanine-DNA alkyltransferase by O6-benzylguanine” (J Med Chem, 2008)
Numbering of substitutions follows the chain as printed. Activity calls are given as the source filed them. The rule behind the calls is not given here.

How the values were obtained:
[1] = target: T1, Methylated-DNA--protein-cysteine methyltransferase (Homo sapiens) (UniProt P16455)
T1 sequence (whole entry): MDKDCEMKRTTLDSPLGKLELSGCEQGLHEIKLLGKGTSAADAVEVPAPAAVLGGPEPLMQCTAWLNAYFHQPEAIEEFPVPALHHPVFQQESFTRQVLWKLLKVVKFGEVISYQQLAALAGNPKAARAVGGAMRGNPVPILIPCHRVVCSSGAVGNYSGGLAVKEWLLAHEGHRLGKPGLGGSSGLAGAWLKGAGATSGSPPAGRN
Description: Inactivation of histidine6-tagged wild type human recombinant O-6-alkylguanine-DNA-alkyltransferase expressed in Escherichia coli assessed as [3H]methylated protein formation in absence of [3H]methylated calf thymus DNA

[2] = target: T1, Methylated-DNA--protein-cysteine methyltransferase (Homo sapiens); remark: listed apart in the source
Description: Inactivation of histidine6-tagged wild type human recombinant O-6-alkylguanine-DNA-alkyltransferase expressed in Escherichia coli assessed as [3H]methylated protein formation in presence of [3H]methylated calf thymus DNA

[3] = Stability assessed as N6-[2-(hydroxymethyl)-benzyl]-2-aminoadenine formation in aqueous solution; type: physicochemical; conditions: buffer
[4] = target: T1, Methylated-DNA--protein-cysteine methyltransferase (Homo sapiens); assay: Inactivation of histidine6-tagged human recombinant O-6-alkylguanine-DNA-alkyltransferase expressed in Escherichia coli assessed as [3H]methylated protein formation at 1 mM
[5] = target: T1, Methylated-DNA--protein-cysteine methyltransferase (Homo sapiens); assay: Inactivation of human O-6-alkylguanine-DNA-alkyltransferase in human HT-29 cells at 1 uM after 30 mins by reverse-phase HPLC in presence of [3H]methylated calf thymus DNA
[6] = system: HT-29; assay: Sensitization of human HT-29 cells to BCNU-induced cytotoxicity assessed as survival treated for 2 hrs before BCNU challenge measured after 16 to 18 hrs by colony forming assay; type: functional, cell-based
[7] = system: T2, Methylated-DNA--protein-cysteine methyltransferase (Homo sapiens), P16455 [S159A]
T2 sequence (whole entry): T1 sequence (whole entry) with S159A
Description: Inactivation of histidine6-tagged human recombinant O-6-alkylguanine-DNA-alkyltransferase S159A mutant expressed in Escherichia coli assessed as [3H]methylated protein formation in presence of [3H]methylated calf thymus DNA

[8] = system: T2, Methylated-DNA--protein-cysteine methyltransferase (Homo sapiens), P16455 [S159A]; remark: listed apart in the source
Description: Inactivation of histidine6-tagged human recombinant O-6-alkylguanine-DNA-alkyltransferase S159A mutant expressed in Escherichia coli assessed as [3H]methylated protein formation in absence of [3H]methylated calf thymus DNA

Compound | ED50 [1] [µM] | ED50 [2] [µM] | t1/2 [3] [h] | inhibition [4] [%] | inhibition [5] [%] | ED50 [7] [µM] | ED50 [8] [µM] | Activity [6]
Nc1nc(NCc2ccccc2CO)c2[nH]cnc2n1 | > 1000 | > 1000 | 50 | < 10 | – | – | – | –
Cc1ccc(COc2nc(N)nc3nc[nH]c23)cc1 | 0.32 | – | – | – | – | – | – | –
Cc1cccc(COc2nc(N)nc3nc[nH]c23)c1 | 0.25 | 0.16 | – | – | – | – | – | –

Further lines, with some results ahead:

ED50 [1] [µM] | ED50 [2] [µM] | t1/2 [3] [h] | inhibition [4] [%] | inhibition [5] [%] | ED50 [7] [µM] | ED50 [8] [µM] | Compound | Activity [6]
185 | 90 | – | – | – | – | – | Cc1ccccc1COc1nc(N)nc2nc[nH]c12 | –
0.23 | 0.053 | – | – | 20 | 0.028 | 0.16 | NCc1ccc(COc2nc(N)nc3nc[nH]c23)cc1 | Active
80 | 45 | – | – | – | – | – | NCc1ccccc1COc1nc(N)nc2nc[nH]c12 | –
